Measurements reported in patent publication US11535643B2, “Macrolides with modified desosamine sugars and uses thereof” (President and Fellows of Harvard College, priority 2015, dated 2022).
In brackets after ≈: the same amount, converted by molar mass. Read-outs that look alike come from different tables or passages of the source.

What was measured:
Type in all cases: cell-based
[1] = tested on: S. pyogenes; test: Broth dilution MIC determination (CLSI) against S. pyogenes strains; settings: Streptococcus pyogenes
Procedure, shortened: (§1)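 Macrolide MICs come from CLSI-standard broth dilution testing of distinct strains, several multidrug-resistant, selected with attention to macrolide resistance mechanisms; two reference macrolides, azithromycin and solithromycin, were included.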

[2] = tested on: A. baumannii; test: Broth dilution MIC determination (CLSI) against A. baumannii strains; settings: Acinetobacter baumannii
Procedure, shortened: as §1

[3] = tested on: S. pneumoniae; test: Broth dilution MIC determination (CLSI) against S. pneumoniae strains; settings: Streptococcus pneumoniae
Procedure, shortened: as §1

[4] = tested on: E. faecalis; test: Broth dilution MIC determination (CLSI) against E. faecalis strains; settings: Enterococcus faecalis
Procedure, shortened: as §1

[5] = tested on: H. influenzae; test: Broth dilution MIC determination (CLSI) against H. influenzae strains; settings: Haemophilus influenzae
Procedure, shortened: as §1

[6] = tested on: K. pneumoniae; test: Broth dilution MIC determination (CLSI) against K. pneumoniae strains; settings: Klebsiella pneumoniae
Procedure, shortened: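 Azithromycin and solithromycin served as controls; MICs were obtained by standard CLSI broth dilution on a strain panel including multidrug-resistant and macrolide-resistant isolates.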

[7] = tested on: S. aureus; test: Broth dilution MIC determination (CLSI) against S. aureus strains; settings: Staphylococcus aureus
Procedure, shortened: as §1

[8] = tested on: E. coli; test: Broth dilution MIC determination (CLSI) against E. coli strains; settings: Escherichia coli
Procedure, shortened: as §1

[9] = tested on: P. aeruginosa; test: Broth dilution MIC determination (CLSI) against P. aeruginosa strains; settings: Pseudomonas aeruginosa
Procedure, shortened: as §1

[10] = ATCC19615, ATCC19615, read-out: MIC S. pyogenes ATCC19615
[11] = macrolide-resistant, read-out: MIC S. pyogenes macrolide-resistant
[12] = ATCC19606, ATCC19606, read-out: MIC A. baumannii ATCC19606
[13] = IMP-4, read-out: MIC A. baumannii IMP-4
[14] = chromosomal class C, read-out: MIC A. baumannii chromosomal class C
[15] = imipenem-resistant, read-out: MIC A. baumannii imipenem-resistant
[16] = ATCC49619, ATCC49619, read-out: MIC S. pneumoniae ATCC49619
[17] = erm B + mef A genotype, read-out: MIC S. pneumoniae erm B + mef A genotype
[18] = erm B + tet(M, O) genotype, read-out: MIC S. pneumoniae erm B + tet(M, O) genotype
[19] = ATCC29212, ATCC29212, read-out: MIC E. faecalis ATCC29212
[20] = Vancomycin-resistant, read-out: MIC E. faecalis Vancomycin-resistant
[21] = ATCC49247, ATCC49247, read-out: MIC H. influenzae ATCC49247
[22] = erythro > 4, azithro 1, read-out: MIC H. influenzae erythro > 4, azithro 1
[23] = ATCC10031, ATCC10031, read-out: MIC K. pneumoniae ATCC10031
[24] = KPC-2, read-out: MIC K. pneumoniae KPC-2
[25] = SHV-12, read-out: MIC K. pneumoniae SHV-12
[26] = TEM-10, read-out: MIC K. pneumoniae TEM-10
[27] = ATCC29213, ATCC29213, read-out: MIC S. aureus ATCC29213
[28] = MRSA / USA100, MRSA: USA100, read-out: MIC S. aureus MRSA: USA100
[29] = MRSA / USA300, MRSA: USA300, read-out: MIC S. aureus MRSA: USA300
[30] = USA600, USA600, GISA, read-out: MIC S. aureus USA600, GISA
[31] = read-out: MIC S. aureus erm A genotype
[32] = ATCC25922, ATCC25922, read-out: MIC E. coli ATCC25922
[33] = read-out: MIC E. coli CTX-M-14, CTX-M-14
[34] = read-out: MIC E. coli NDM-1, NDM-1
[35] = read-out: MIC E. coli TEM-1, TEM-1
[36] = ATCC27853, read-out: MIC P. aeruginosa ATCC27853
[37] = read-out: MIC P. aeruginosa HPA101-1477

| SMILES | MIC [1, 10] | MIC [1, 11] | MIC [2, 12] | MIC [2, 13] | MIC [2, 14] | MIC [2, 15] | MIC [3, 16] | MIC [3, 17] | MIC [3, 18] | MIC [4, 19] | MIC [4, 20] | MIC [5, 21] | MIC [5, 22] | MIC [6, 23] | MIC [6, 24] | MIC [6, 25] | MIC [6, 26] | MIC [7, 27] | MIC [7, 28] | MIC [7, 29] | further results |
| --- | --- | --- | --- | --- | --- | --- | --- | --- | --- | --- | --- | --- | --- | --- | --- | --- | --- | --- | --- | --- | --- |
| CC[C@H]1OC(=O)[C@H](C)C(=O)[C@H](C)[C@@H](O[C@@H]2OC(Cn3cc(-c4cccc(N)n4)nn3)CC(N(C)C)C2O)[C@](C)(OC)C[C@@H](C)CN[C@H](C)[C@H]2N(CCCCn3cc(-c4cccc(N)c4)nn3)C(=O)O[C@]12C (stereo partly shown) [FSM-22124] | ≤ 0.0312 µg/mL | 2 µg/mL (≈ 2.03 µM) | 16 µg/mL (≈ 16.2 µM) | > 32 µg/mL | 16 µg/mL (≈ 16.2 µM) | 16 µg/mL (≈ 16.2 µM) | ≤ 0.0312 µg/mL | 0.5 µg/mL | ≤ 0.0312 µg/mL | 0.25 µg/mL (≈ 0.253 µM) | > 32 µg/mL | 2 µg/mL (≈ 2.03 µM) | 1 µg/mL (≈ 1.01 µM) | 4 µg/mL (≈ 4.05 µM) | 32 µg/mL (≈ 32.4 µM) | > 32 µg/mL | 8 µg/mL (≈ 8.1 µM) | 4 µg/mL (≈ 4.05 µM) | > 32 µg/mL | > 32 µg/mL | MIC [7, 30]: > 32 µg/mL; MIC [7, 31]: > 32 µg/mL; MIC [8, 32]: 16 µg/mL (≈ 16.2 µM); MIC [8, 33]: > 32 µg/mL; MIC [8, 34]: > 32 µg/mL; MIC [8, 35]: 16 µg/mL (≈ 16.2 µM); MIC [9, 36]: > 32 µg/mL; MIC [9, 37]: > 32 µg/mL |
| CC[C@H]1OC(=O)[C@H](C)C(=O)[C@H](C)[C@@H](O[C@@H]2OC(Cn3cc(-c4cnc(N)s4)nn3)CC(N(C)C)C2O)[C@](C)(OC)C[C@@H](C)CN[C@H](C)[C@H]2N(CCCCn3cc(-c4cccc(N)c4)nn3)C(=O)O[C@]12C (stereo partly shown) [FSM-22125] | ≤ 0.0312 µg/mL | 4 µg/mL (≈ 4.03 µM) | > 32 µg/mL | > 32 µg/mL | 32 µg/mL (≈ 32.2 µM) | > 32 µg/mL | ≤ 0.0312 µg/mL | > 32 µg/mL | ≤ 0.0312 µg/mL | 0.5 µg/mL (≈ 0.503 µM) | > 32 µg/mL | 4 µg/mL (≈ 4.03 µM) | 2 µg/mL (≈ 2.01 µM) | 32 µg/mL (≈ 32.2 µM) | > 32 µg/mL | > 32 µg/mL | 32 µg/mL (≈ 32.2 µM) | 4 µg/mL (≈ 4.03 µM) | > 32 µg/mL | > 32 µg/mL | MIC ([3]; read-out: MIC S. pneumoniae mef A genotype, mef A genotype): 4 µg/mL (≈ 4.03 µM); MIC ([3]; read-out: MIC S. pneumoniae mef A genotype, mef A genotype, first of two such columns (c3)): 0.5 µg/mL (≈ 0.503 µM); MIC [7, 30]: > 32 µg/mL; MIC [7, 31]: > 32 µg/mL; MIC [8, 32]: 32 µg/mL (≈ 32.2 µM); MIC [8, 33]: > 32 µg/mL; MIC [8, 34]: > 32 µg/mL; MIC [8, 35]: 16 µg/mL (≈ 16.1 µM); MIC [9, 36]: > 32 µg/mL; MIC [9, 37]: > 32 µg/mL |
